# Results taken from patent publication US20150212064A1, “DEGRANULATION INDICATOR AND METHODS OF USE THEREOF” (priority 2011, published 2015).
# Entries after “also recorded” stand apart in the source; their conditions may differ.
# Assays:
# [1] = tested on: NK92 cells expressing pHlourin-LAMP1; assay: Live cell TIRFm of lytic granule motility and persistence in activated pHluorin-LAMP1 NK92 cells; type: cell-based, human; conditions: for pre-degranulation motility of granules: 10 μM LatA added after 10 minutes, vs DMSO control; for number / accumulation of granules at the TIRF plane of the activated NK IS: LatA-treated cells, not quantified
# Method: For NK92 lytic granule motility studies, pHluorin-LAMP1 NK92 cells were suspended in dye free RPMI 10% FBS media at a concentration of 7.5×10^5 to 10^6 cells/ml and incubated with 100 nM LysoTracker® Red DND-99 (Invitrogen) at 37° C. for 30 minutes, washed, and resuspended in media. ΔT culture dishes (Bioptechs) were coated with […] anti-NKp30 and -CD18, incubated at 37° C. for 1 hour or 4 degrees overnight, washed with PBS, and pre-warmed with dye free RPMI 10% FBS media. NK92 cells were plated on ΔT culture dishes immediately prior to imaging, and temperature was maintained at 37° C. throughout the experiment using a ΔT culture dish heater and lid (Bioptechs).
# Cells were imaged in a single z-plane 10-15 minutes after addition to imaging chambers through an APO N TIRFm, oil immersion 60×1.49 NA objective using an Olympus IX-81 spinning disk confocal microscope with a rear-mounted TIRF illuminator and a Hamamatsu EM CCD C9100 camera. Excitation was by 480 nm (Spectra-Physics) and 561 nm (Cobalt) diode lasers through a LMM5 laser combiner unit (Spectral Applied Research). Cell image sequences were captured in TIRF mode at the interface between the cell and the glass over 60-80 minutes at 6 frames per minute using Volocity® software (PerkinElmer). Where indicated, cells were incubated with 10 μM LatA (Sigma) following 10 minutes of pre-incubation in the imaging chamber.
# For TIRFm analysis, image sequences were analyzed using Volocity® software (PerkinElmer). LysoTracker® Red and pHluorin positive events were identified and cropped in Volocity®. Object tracks were generated over time using the “track objects manually” function and the rectangular selection tool for each event; the track length, track velocity, displacement, and displacement rate of each lytic granule were measured for both LysoTracker® Red time points and pHluorin time points, and comparatively graphed on GraphPad Prism® Version 5.0 (GraphPad software). Overlays of lytic granule tracks were generated by the plotting of X and Y coordinate values from Volocity with GraphPad Prism® for both Lysotracker® Red and pHluorin. To measure the time persistence of LysoTracker® Red lytic granules within the TIRF field, the time of LysoTracker® Red emergence on the TIRF field was subtracted from the time of pHlourin appearance or LysoTracker® Red disappearance and multiplied by 60 to obtain time persistence in seconds.
# For LatA experiments, granules with both Lysotracker Red and pHluorin traces were identified and cropped in Volocity®. Objects were identified using a threshold of 3 SD above the mean field fluorescence for each timepoint to account for photobleaching using the “Find Objects Using SD Intensity” function. Objects smaller than 0.032 μm^2 were excluded from further analysis. Tracks were then generated using the “Track Objects” feature using the “Shortest Path” tracking model, and the track length, track velocity, displacement, displacement rate, and time span of each lytic granule tabulated and graphed using GraphPad Prism® software Version 5.0.
# The sum fluorescent intensity and area of each granule was also recorded at each timepoint. Using the initial appearance of pHluorin-LAMP1 as time zero, the average sum fluorescent intensity post-degranulation was calculated and graphed for lytic granules treated with DMSO vehicle control versus those treated with LatA. For area measurements, the borders of individual granules were defined as those above 3 SD.
# NK cell = conditions: cited from earlier work
# [2] = tested on: NK cell cortical actin filaments; conditions: cited from earlier work
# PC12 chromaffin cells = conditions: cited from earlier work
# resting human NK cells = conditions: cited from earlier work
# [3] = tested on: NK-92 cells expressing pHluorin-LAMP1; assay: Flow cytometry of green fluorescence of NK-92 cells expressing pHluorin-LAMP1; type: cell-based, human; conditions: for pHluorin fluorescence: PMA 100 ng/mL and Ionomycin 1 μg/mL together for 30 minutes
# Method: Flow cytometry was performed to verify pHluorin-LAMP1 expression. Cells were untreated or treated with phorbol myristate acetate (PMA, 100 ng/mL,Sigma) and Ionomycin (1 μg/mL, Sigma) for 30 minutes or Concanamycin A (CMA, 100 nM, Sigma) for 90 minutes and samples were run on a Becton Dickinson FACSCalibur™.
# NK-92 cells = assay: Degranulation assay (Granzyme A activity, BLT esterase) of NK-92 cells activated by immobilized antibody to NKp30 and CD18; type: cell-based, human; conditions: thapsigargin 1 μM, positive control
# Method: Immulon 4HBX 96 well flat bottom plates (Thermo) were coated with murine IgG (BD), anti-human NKp30, anti-human CD18, or both anti-NKp30 and anti-CD18 at 5 μg/mL in PBS overnight at 4° C. Plates were washed twice with PBS and blocked for 1 hr at room temperature with R10 media. One×10^5 cells were added to wells and plates were spun at 1000 rpm for two minutes before incubation at 37° C. For the timecourse degranulation assay, supernatants from spontaneous and activated wells were harvested at indicated times. For inhibitor treatments, media containing inhibitor or vehicle (DMSO) was added at indicated times. Inhibitors used were jasplakinolide (1 μM, Calbiochem), latrunculin A (10 μM, Sigma), cytochalasin D (10 μM, Sigma), and thapsigargin (1 μM, Calbiochem). Supernatatants were harvested after 60 minutes. For total release, cells were lysed in 0.5% Nonidet P40 (Accurate Chemical and Scientific). […] Samples were incubated for 30 minutes at 37° C. and absorbance was measured immediately at 405 nm. Percent total release was measured by subtracting the spontaneous release value from activated release values (A-S) and the total release value (T-S), and then dividing (A-S) by (T-S).
# neutrophils = conditions: cited from earlier work
# [4] = 10 μM LatA, 12-18 tracks, normalized to DMSO control
compound,measurement,setting,value
"C/C1=C/C(=O)O[C@@H]2C[C@@H](CC[C@H](C)/C=C\C=C\CC1)O[C@@](O)([C@@H]1CSC(=O)N1)C2 [LatA, latrunculin A]",pre-degranulation motility of granules,[1],intact; also recorded: did not significantly affect granule movement prior to degranulation
same,pre-degranulation motility of granules,[1]; listed as Latrunculin A,did not affect pre-exocytosis movement
same,lytic granule total displacement,[1]; [4],no significant differences
same,lytic granule track length,[1]; [4],no significant differences
same,lytic granule velocity,[1]; [4],no significant differences
same,timespan of green fluorescence (persistence following exocytosis),"[1]; 10 μM LatA, control normalized to 1.0±0.56, p=0.0441",0.59±0.442
same,lifetime of red fluorescence (timespan pre-degranulation),"[1]; 10 μM LatA, control normalized to 1.0±0.87",1.1±0.61 AU
same,median time for 50% survival of granules following degranulation (Kaplan-Meier),"[1]; 10 μM LatA, control treated cells 28.8 minutes",13.7 min
same,area of granules post-degranulation,"[1]; LatA vs DMSO, over 40 minutes p<0.0001, truncated at 20 minutes p=0.4438",slightly greater area
same,sum fluorescent intensity (MFI*area) of granules post-degranulation,"[1]; LatA vs DMSO, up to forty minutes post-degranulation, p<0.0001 Mann Whitney U test",significantly greater sum fluorescent intensity (MFI*area) of granules from DMSO treated cells
same,number / accumulation of granules at the TIRF plane of the activated NK IS,[1],no observable defect in the number of granules that reached the TIRF plane
same,number / accumulation of granules at the TIRF plane of the activated NK IS,[1]; listed as Latrunculin A,gross accumulation of granules was not observed
same,cytotoxic function,NK cell,abrogates cytotoxic function
same,depolymerization of cortical actin,[2],rapidly depolymerizes; also recorded: completely depolymerizes cortical actin
same,expulsion of granule contents,PC12 chromaffin cells,more rapid expulsion of granule contents
C/C1=C/C(=O)O[C@@H]2C[C@@H](CC[C@H](C)/C=C\CC1)O[C@@](O)([C@@H]1CSC(=O)N1)C2 [Latrunculin B],movement of granules at the plasma membrane / cortex,resting human NK cells,arrests those granules constitutively found at the plasma membrane
same,numbers of granules at the plasma membrane,resting human NK cells,does not result in increased numbers of granules
"CCCCCCCCCCCCCC(=O)O[C@@H]1[C@@H](C)[C@@]2(O)[C@@H](C=C(CO)C[C@]3(O)C(=O)C(C)=C[C@@H]23)[C@@H]2C(C)(C)[C@]12OC(C)=O [PMA, phorbol myristate acetate]",pHluorin fluorescence,[3],rapid increase in pHluorin fluorescence
"C/C=C(/C)C(=O)O[C@H]1C(C)=C2[C@H]([C@@H]1OC(=O)CCCCCCC)[C@@](C)(OC(C)=O)C[C@H](OC(=O)CCC)[C@@]1(O)[C@H]2OC(=O)[C@@]1(C)O [Thapsigargin, thapsigargin]",effect on degranulation,NK-92 cells,positive effect on degranulation
"C/C=C/[C@H]1O[C@@](O)([C@@H](C)[C@H](O)[C@H](C)[C@H]2OC(=O)/C(OC)=C/C(C)=C/[C@@H](C)[C@@H](O)[C@@H](CC)[C@@H](O)[C@H](C)C/C(C)=C/C=C/[C@@H]2OC)C[C@@H](O[C@H]2C[C@@H](O)[C@H](OC(N)=O)[C@@H](C)O2)[C@@H]1C [concanamycin A, Concanamycin A]",green fluorescence measured by flow cytometry,[3]; Concanamycin A 100 nM for 90 minutes,robust increase in green fluorescence
C=C1[C@@H](C)[C@H]2[C@H](Cc3ccccc3)NC(=O)[C@]23[C@H](OC(C)=O)/C=C/[C@@](C)(O)C(=O)[C@@H](C)C/C=C/[C@H]3[C@@H]1O [cytochalasin D],accumulation of granules at the exocytic zone,neutrophils,seems to promote the accumulation of granules
same,movement of granules in the TIRF plane at the membrane,neutrophils,does not prevent movement of granules
"C[C@H](CCC(=O)O)C[C@H](C)C[C@H](C)C(=O)/C=C(\O)[C@H](C)C[C@H](C)C/C=C/[C@@H](C)[C@@H](O)[C@@H](C)[C@@H](O)C[C@@H]1CC[C@@](C)([C@H]2CC[C@@](C)([C@@H](C)O)O2)O1 [ionomycin, Ionomycin]",pHluorin fluorescence,[3],rapid increase in pHluorin fluorescence
COC(=O)Nc1nc2ccc(C(=O)c3cccs3)cc2[nH]1 [nocodazole],movement of granules at the plasma membrane / cortex,resting human NK cells,arrests the movement of granules at the cortex
